Experimental data: patent publication US12049638B2, “Synthetic genetic elements for biomanufacture” (Janssen Biotech, Inc., priority 2019, dated 2024)

Key:
[1] = system: P600-PEAK-Rapid cells; assay: AAV production from P600 stable pool after Ad5-CMV-SR21 infection, with 2-aminopurine, ddPCR mCherry assay; type: cell-based, human
Experimental: ddPCR quantitation was based on the method described by Lock et al. (2014) Human Gene Therapy methods 23: 115-125. Two 1 of the lysate was DNAse digested in 20 reactions containing 1× PCR buffer+20 mM Tris pH 8.5+8 units DNAse I at 37° C. for 1 hour 96-well plates in a thermocycler. 2 μl of the DNAse digested samples were diluted with 98 Virus Dilution Buffer (VDB) and 2 μl of this dilution was added to ddPCR reactions containing 1× PCR SuperMix+1× PCR Primer/Probe for the mCherry transgene (See Materials section). ddPCR droplets were formed using the Bio-Rad automated droplet maker. PCR cycling was as follows: 95° C. 10 min; 42× (94° C. 30s, 60° C. 1 min, 72° C. 15s all three at cycling time of 2° C. per s); 98° C. 10 min; 4° C. hold. FAM fluorescence was detected on the Bio-Rad droplet reader as per manufacturer's instructions. The clones that produced the highest DNAse-resistant particles as detected as FAM-fluorescence positive droplets were subjected to expansion and further screening.
Construct P600 was transfected into Peak-RAPID cells and a stable pool was generated through selection with 0.5 μg/ml puromycin essentially as described for P439 cells above. Cells were passed 1:10 for 6 weeks prior to assaying AAV production.
2.5E6 P600-PEAK-Rapid p6 cells were plated into three T25 flasks in 5 mls DMEM+10% FBS and incubated for three days at 37° C. The cells density on the day of infection was determined to be 6.6E6 viable cells in one of the flasks where cells were recovered with TrypLE and counted using Trypan blue exclusion. Media in the two remaining flasks were replaced with […] DMEM+2% FBS containing 2.6E8 Ad5-CMV-SR21 virus particles. The flasks were incubated for 24 hours at 32° C. […] One ml of DMEM+2% FBS was added to the other flask, and both flasks were incubated at 32° C. for 7 additional days. Media was recovered from the flasks, centrifuged at 3,000 rpm for 5 minutes to pellet cells and debris. 2 μl of each sample supernatant was subjected to DNAse digestion and ddPCR quantitation using the mCherry assay as described above.

[2] = system: adenovirus infection; details: cited from earlier work
[3] = system: recombinase reporter plasmid (P41) with SR21 attP and attB signals; assay: Recombinase reporter assay (Dual Glo firefly/Renilla luciferase) in transfected HEK293 cells; type: cell-based, human
From the text: A vector (P175) (SEQ ID NO:10) was constructed by Gene Synthesis (GENEWIZ, Plainfield, N.J.) to express SR21 recombinase in mammalian cells under control of the CMV promoter and followed by an SV40 polyadenylation signal. The SR21 recombinase open reading frame is the same as SEQ ID NO:3 except that the bacterial translation initiation codon “TTG” is replaced by an “ATG”, and three point-mutations were introduced to destroy restriction endonuclease recognition sites.
A recombinase reporter plasmid (P41) was also constructed by gene synthesis (GENEWIZ, Plainfield, N.J.) (SEQ ID NO:11; FIG. 4). It encodes a constitutively expressed green fluorescent protein (GFP)—self-cleaving F2A—Renilla luciferase (rLUC) fusion protein driven by the EF1α promoter. It also encodes recombinase activated—mCherry-self cleaving P2A-firefly luciferase (fLUC) reporter gene flanked by SR21 attP (SEQ ID NO:7) and attB (SEQ ID NO:9) signals in the antisense orientation relative to the CMV promoter. When SR21 recombinase recombines the attP and attB signals, the coding region is inverted into the sense orientation and the mCherry-P2A-fLUC protein is expressed (See FIG. 4).
To measure SR21 recombinase activity in human cells, 75,000 HEK293 cells were plated into each well of 96-well tissue culture plates in 100 of high-glucose DMEM+10% Fetal Bovine Serum. The recombinase reporter plasmid (P041) the SR21 Recombinase expression plasmid (P175)+[…] (to normalize DNA amounts) were complexed with Fugene-HD transfection reagent in OptiMEM medium for 15 minutes at room temperature as shown in Table 1 and transfected into triplicate wells of the plated cells. Plates were incubated at 37° C. for 48 hours.
Firefly Luciferase (fLUC) and Renilla luciferase (rLUC) was assayed sequentially in transfected wells using the Dual Glo assay kit from Promega. Medium was removed from the transfected wells of the tissue culture plate and 100 μl of a 1:1 mixture of DMEM medium (without phenol red) and the Dual Glo luciferase+fLUC substrate was added. The plate was incubated at room temperature for 10 minutes. The lysate was transferred to an opaque white 96-well plate. fLUC activity was measured using the Envision multilabel reader. Next, 50 μl per well of the Stop-and-Glo buffer+Renilla substrate was added and the plate was incubated with gentle shaking for 10 minutes. The Renilla luciferase signal was read on the same Envision reader.

[4] = system: Stop Cassette of vector P439 (attP/attB); assay: Stop Cassette removal by SR21 Recombinase, co-transfection of P439 and P175, PCR and sequencing; type: cell-based, human; details: PEAK-Rapid cells, three days; PCR product sequenced; attL produced
Experimental: Media was removed, cells were washed once with D-PBS and then incubated with TrypLE for 5 minutes at 37° C. Cells were transferred to a sterile microfuge tube, pelleted by centrifugation, washed once with 1 ml D-PBS and pelleted again. Episomal plasmids were recovered by alkaline lysis using the Qiagen Spin Miniprep kit designed for isolating plasmids from bacteria.
To destroy unrecombined plasmid DNA, an aliquot of the recovered DNA was digested with enzyme Spe I-HF in 1× CutSmart Buffer at 37° C. Ihour and 80° C. 20 minutes. The recovered DNA was subjected to PCR amplification with primers P349F3 (SEQ ID NO:32) and P349R9 (SEQ ID NO:33) using NEXT Ultra II Q5 Master Mix with the following cycling conditions: 98° C. 1 min; 35× (98° C. 10s, 72° C. 10s); 5 min 72° C. A single PCR product of the predicted size was observed when subjected to electrophoresis on a 1% agarose gel. The PCR product was purified by size exclusion chromatography using a CHROMA SPIN™+TE-1000 Column. The PCR product was sequenced using the same primers used for PCR (GeneWiz).

Nc1ncc2[nH]cnc2n1 [2-AP, 2-aminopurine]
AAV GC/Cell ([1]; DMEM + 2% FBS + 1.25 mM 2-AP added 24 hours post infection, 32° C., 7 additional days, media): 59,356 ± 11,026 GC/Cell | effect on AAV production ([1]; concentrations above 1.25 mM and addition earlier than 24 hours): inhibitory | increase in AAV virus production ([1]; in the presence of 2-aminopurine versus without, P600 stable pool): 2.5 fold | cytopathic effect of adenovirus infection ([2]; 10 mM 2-AP treatment 1-2 hours post infection): blocked | toxicity to cells ([2]; 10 mM 2-AP, for at least three days): nontoxic

B1: SR21 recombinase: putative serine recombinase from Bacillus safensis strain CCMA-560, SEQ ID NO:2, expressed from plasmid P175 (protein)
chain: MELKHIVNSYNVTKIIGYLRRSRQDVEREKRTGEDTLTEQKELMNKILTGIEIPYETRTEIGSGESIEGRPVFKSCLADLRSGKFQAIAVKEITRLSRGSYSDAGEIVNLLNEKRIIIITPYKIYDPRNPVDARQIRFELFMAREEFEMTRERMNGAKFTYAAQGKWISGLAPFGYKLNKRTSRLEPSDEDKVVVKLIFDIFLNGLDGKDLSYTAIATHLSKLQFTTPRGGKRWSKDTVRKILQNEAYMGRVRYKARETTKDGKKVFRPESEHIVVDDAHEPIINKEDFEAVQEKIKNKVPLLPVVTSYEPNELAGICVCSVCGKSLQKFESEYNRKNKDGTSSYFHVKLLICKINKCTSVRYEYVEEAILEYLEQLIALENNKLKAIIEKSMEAAETNNSEKTSEQMLVQANQKQKELENKLTFIFEKFESGIYTDEMFLQRKAAIEKEVADIKKLKQELSMTFEVKEKDVNEFRVNISDVVKFYKESKSRGLKNEKLRSIFDFIVLEMTEKRRGPIPAKFNIYPVLRIPSVVN
modifications: SR21 Recombinase (WP_029708089.1) Protein Sequence
rLUC ([3]; 100 ng P41 reporter + 100 ng P175, 48 hours, constitutive Renilla luciferase (transfection efficiency)): 3.4E06 ± | fLUC ([3]; 100 ng P41 reporter + 100 ng P175 recombinase expression plasmid, 48 hours): 6.6E06 ± | Fold-Increase in fLUC Activity ([3]; reporter + recombinase expression plasmid versus reporter + deoxynucleotides): 1535 fold | SR21 recombinase activity in human cells ([3]; representative of three independent experiments): highly active | removal of STOP cassette from plasmid P439 by recombining attP and attB [4]: precisely removed
